For experiment [1], the target named is T1, IRE1α (Homo sapiens (Human), UniProt O75460). Briefly: In vitro luciferase assay (IRE1α Endoribonuclease Nanoluciferase Assay). The experiment is classed as cell-based. The note with it: 293T cells, XBP1 luciferase reporter. Here is the method: Compounds disclosed herein were assessed for disruption of IRE-1 signaling using a IRE1α Endoribonuclease Nanoluciferase Assay. Briefly, 2.5×10^6 293T cells were seeded in a 10 cm^2 tissue culture plate. About 24 hours later, the cells were transfected with Effectene. In a 15 mL Tube, the following was added: 2 μg XBP1 luciferase reporter plasmid (PGK-Luc2-P2A-XBP1u-Nanoluciferase-PEST); 300 μl EC buffer; and 16 μl Enhancer, followed by incubation at room temp for 5 minutes. Next, 60 μl Effectene (Qiagen 301427) was added, followed by incubation at room temperature for 10 minutes. 2.6 mL cDMEM media was added. Old media was aspirated from the cells, followed by addition of 7 mL fresh media. Full transfection mixture was added dropwise to cells. Cells were incubated for 6 hours, followed by trypsinization, centrifugation and resuspension in 11 mL media. 100 uL of cells were plated per a well in a 96 well plate. A day later, ER stressors of choice+/−inhibitors were added. To harvest, media was aspirated from cells completely, then 50 uL 1× passive lysis buffer (Promega: E1941) was added per well and put on shaker (300 rpm) for 30 minutes at room temperature. Cells were centrifuged, and 15 uL sample per well was added to a new, opaque white 384 well plate (Corning 3570). 15 uL OneGlo (nanoluciferase kit, Promega N1630) was added. Plates were spun down, placed on shaker (300 rpm) for 10 minutes. Plates were read on luminometer, 1000 ms integration time per well. 15 uL Stop and Glo (nanoluciferase kit) was added. Plates were spun down, placed on shaker (300 rpm) for 10 minutes. Plates were read on luminometer, 1000 ms second integration time per well. Recordings are provided below in Table 4
T1 sequence (O75460 19-977): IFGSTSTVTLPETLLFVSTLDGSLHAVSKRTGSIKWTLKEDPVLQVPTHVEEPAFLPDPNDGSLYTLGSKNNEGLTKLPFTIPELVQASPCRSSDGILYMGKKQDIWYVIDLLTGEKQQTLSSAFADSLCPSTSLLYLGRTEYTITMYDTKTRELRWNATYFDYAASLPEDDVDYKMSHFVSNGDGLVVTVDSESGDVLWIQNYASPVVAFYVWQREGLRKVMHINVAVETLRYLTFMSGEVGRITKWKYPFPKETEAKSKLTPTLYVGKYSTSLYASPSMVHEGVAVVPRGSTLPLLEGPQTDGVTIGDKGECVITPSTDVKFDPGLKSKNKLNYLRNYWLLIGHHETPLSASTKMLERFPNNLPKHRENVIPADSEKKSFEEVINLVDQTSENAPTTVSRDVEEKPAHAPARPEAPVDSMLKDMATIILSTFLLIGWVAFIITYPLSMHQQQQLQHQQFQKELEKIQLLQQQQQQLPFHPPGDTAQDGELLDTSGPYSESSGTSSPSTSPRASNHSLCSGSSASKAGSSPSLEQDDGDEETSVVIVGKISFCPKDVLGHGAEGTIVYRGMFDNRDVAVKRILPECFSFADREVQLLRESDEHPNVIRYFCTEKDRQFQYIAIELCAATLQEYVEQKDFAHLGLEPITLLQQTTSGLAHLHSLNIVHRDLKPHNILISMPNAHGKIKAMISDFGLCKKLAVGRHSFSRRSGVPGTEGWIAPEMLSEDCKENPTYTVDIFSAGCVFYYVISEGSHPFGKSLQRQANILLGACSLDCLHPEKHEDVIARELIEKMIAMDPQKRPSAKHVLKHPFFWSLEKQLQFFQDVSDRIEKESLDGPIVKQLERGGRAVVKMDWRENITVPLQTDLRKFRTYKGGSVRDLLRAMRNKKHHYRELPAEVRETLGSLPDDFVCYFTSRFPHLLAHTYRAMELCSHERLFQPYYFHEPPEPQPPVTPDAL
Background: A reporter such as luciferase makes a cellular process visible.

The target in experiment [2] is T1, IRE1α. In words: In vitro FRET assay. It is filed as biochemical. The settings on record: XBP1 RNA probe. As to the method:
In vitro FRET assay was performed to evaluate the ability of select compounds to inhibit IRE1, the results of which are summarized in Table 3. To perform the in vitro FRET assay, 1× complete assay buffer (CAB; […], 50 mM sodium citrate pH 7.15, 1 mM magnesium acetate, 0.02% tween 20) was used to dilute SignalChem IRE1α protein to a final concentration of 2 nM. Selected compounds were serially diluted with DMSO in a non-binding black 384-well plate for a total of 15 ul in each well. 2 ul of the serially diluted compound or DMSO control were then added to new wells containing 98 ul of 1×CAB, for a total volume of 100 ul, 10 ul of which were then transferred to wells of a new plate. 5 ul of the diluted IRE1α was then added to each well. 5 ul of a […] XBP1 RNA probe was then added to each well. Fluorescence was then read over 30 minutes in kinetic mode (485/515 nm).
Two RNA probes were used, XBP1 wildtype (SEQ ID NO: 2) which is able to be spliced by active IRE1α or XBP1 mutant (SEQ ID NO: 3) which is unable to be spliced. Each probe contained a 5′ 6-FAM modification and a 3′ IOWA Black FQ modification.
A second FRET assay was performed to assess ATP-mediated inhibition. In this case, compounds and IRE1α were prepared and combined as discussed above, with the addition of ATP up to 1 mM final concentration. This mixture was incubated at room temperature for 60 minutes and then 5 ul of 400 nM XBP1 wildtype or mutant RNA probe was added. Plates were then read over 30 minutes in kinetic mode (485/515 nm) and rate of fluorescence increase calculated for different compound dilutions to determine IC50 (Table 3).

Usually EC50 stands for the midpoint of the concentration-response curve. Broadly, the IC50 is the concentration at which inhibition is half-maximal. A low value points to higher potency. On IRE1α [1], `COc1nc(NS(=O)(=O)c2ccc(F)cc2Cl)ccc1/C=C/c1cnc(NC2CCC(N(C)C)CC2)nc1` (centres unmarked) [Compound 32, 2-chloro-N-(5-((E)-2-(2-(((1r,4r)-4-(dimethylamino)cyclohexyl)amino)pyrimidin-5-yl)vinyl)-6-methoxypyridin-2-yl)-4-fluorobenzenesulfonamide] yielded an EC50 of no more than 5 nM. At IRE1α [2], this compound showed an IC50 of no more than 1 nM.
The like results for `CCc1nc(NS(=O)(=O)c2cnccc2Cl)ccc1/C=C/c1cnc(NC2CCC(N(C)C)CC2)nc1` (centres unmarked) [Compound 42, 4-chloro-N-(5-((E)-2-(2-(((1r,4r)-4-(dimethylamino)cyclohexyl)amino)pyrimidin-5-yl)vinyl)-6-ethylpyridin-2-yl)pyridine-3-sulfonamide] were, in that order, 5 to 50 nM and no more than 1 nM.
For `Cc1nc(NS(=O)(=O)c2ccc(F)c(F)c2Cl)ccc1/C=C/c1cnc(NC2CCC(N(C)C)CC2)nc1` (centres unmarked) [Compound 38, 2-chloro-N-(5-((E)-2-(2-(((1r,4r)-4-(dimethylamino)cyclohexyl)amino)pyrimidin-5-yl)vinyl)-6-methylpyridin-2-yl)-3,4-difluorobenzenesulfonamide], in that order: 5 to 50 nM and no more than 1 nM.
Regarding `Cc1nc(NS(=O)(=O)c2ccccc2Cl)ccc1/C=C/c1cnc(NC2CCC(N)CC2)nc1` (centres unmarked) [Compound 46, N-(5-((E)-2-(2-(((1r,4r)-4-aminocyclohexyl)amino)pyrimidin-5-yl)vinyl)-6-methylpyridin-2-yl)-2-chlorobenzenesulfonamide], the EC50 on IRE1α [1] lay within 5 to 50 nM. On IRE1α [2], this compound displayed a half-maximal inhibitory concentration (IC50) of no more than 1 nM.
The like results for `CN(C)C1CCC(Nc2ncc(/C=C/c3cnc(NS(=O)(=O)c4ccccc4Cl)cn3)cn2)CC1` (centres unmarked) [Compound 37, 2-chloro-N-(5-((E)-2-(2-(((1r,4r)-4-(dimethylamino)cyclohexyl)amino)pyrimidin-5-yl)vinyl)pyrazin-2-yl)benzenesulfonamide] were, in that order, 5 to 50 nM and no more than 1 nM.
In the case of `CCc1cc(NS(=O)(=O)c2ccccc2Cl)cnc1CCc1cnc(NC2CCC(N)CC2)nc1` (centres unmarked) [Compound 16, N-(6-(2-(2-(((1r,4r)-4-aminocyclohexyl)amino)pyrimidin-5-yl)ethyl)-5-ethylpyridin-3-yl)-2-chlorobenzenesulfonamide], the EC50 at IRE1α [1] is 100 to 10000 nM. For the same compound, the half-inhibitory concentration (IC50) at IRE1α [2] was no more than 1 nM.
For `COc1cc(NS(=O)(=O)c2ccccc2Cl)ccc1CCc1cnc(NC2CCC(N)CC2)nc1` (centres unmarked) [Compound 15, N-(4-(2-(2-(((1r,4r)-4-aminocyclohexyl)amino)pyrimidin-5-yl)ethyl)-3-methoxyphenyl)-2-chlorobenzenesulfonamide], in that order: 100 to 10000 nM and no more than 1 nM.
For `CCN(CC)C1CCC(Nc2ncc(/C=C/c3ccc(NS(=O)(=O)c4ccccc4Cl)nc3C)cn2)CC1` (centres unmarked) [Compound 30, 2-chloro-N-(5-((E)-2-(2-(((1r,4r)-4-(diethylamino)cyclohexyl)amino)pyrimidin-5-yl)vinyl)-6-methylpyridin-2-yl)benzenesulfonamide], in that order: no more than 5 nM and no more than 1 nM.
The like results for `CCc1nc(NS(=O)(=O)c2ccccc2Cl)ccc1/C=C/c1cnc(NC2CCC(N(C)C)CC2)nc1` (centres unmarked) [Compound 29, 2-chloro-N-(5-((E)-2-(2-(((1r,4r)-4-(dimethylamino)cyclohexyl)amino)pyrimidin-5-yl)vinyl)-6-ethylpyridin-2-yl)benzenesulfonamide] were, in that order, no more than 5 nM and no more than 1 nM.
`COc1nc(NS(=O)(=O)c2ccccc2Cl)ccc1/C=C/c1cnc(NC2CCC(N)CC2)nc1` (centres unmarked) [Compound 9, N-(5-((E)-2-(2-(((1r,4r)-4-aminocyclohexyl)amino)pyrimidin-5-yl)vinyl)-6-methoxypyridin-2-yl)-2-chlorobenzenesulfonamide] returned an EC50 at IRE1α [1] of no more than 5 nM. Further, the IC50 against IRE1α [2] was no more than 1 nM.
At IRE1α [1], `CN(C)C1CCC(Nc2ncc(/C=C/c3ccc(NS(=O)(=O)c4ccccc4Cl)c(F)c3)cn2)CC1` (centres unmarked) [Compound 35, 2-chloro-N-(4-((E)-2-(2-(((1r,4r)-4-(dimethylamino)cyclohexyl)amino)pyrimidin-5-yl)vinyl)-2-fluorophenyl)benzenesulfonamide] returned an EC50 of 5 to 50 nM. The IC50 on IRE1α [2] is no more than 1 nM.
For `Cc1nc(NS(=O)(=O)c2ccc(F)cc2Cl)ccc1/C=C/c1cnc(NC2CCC(N(C)C)CC2)nc1` (centres unmarked) [Compound 31, 2-chloro-N-(5-((E)-2-(2-(((1r,4r)-4-(dimethylamino)cyclohexyl)amino)pyrimidin-5-yl)vinyl)-6-methylpyridin-2-yl)-4-fluorobenzenesulfonamide], in that order: no more than 5 nM and no more than 1 nM.
The like results for `COc1nc(NS(=O)(=O)c2cccc(Cl)c2Cl)ccc1/C=C/c1cnc(NC2CCC(N(C)C)CC2)nc1` (centres unmarked) [Compound 51, 2,3-dichloro-N-(5-((E)-2-(2-(((1r,4r)-4-(dimethylamino)cyclohexyl)amino)pyrimidin-5-yl)vinyl)-6-methoxypyridin-2-yl)benzenesulfonamide] were, in that order, no more than 5 nM and no more than 1 nM.
For the compound `CCCc1nc(NC2CCC(N)CC2)ncc1/C=C/c1ccc(NS(=O)(=O)c2ccccc2Cl)cc1` (centres unmarked) [Compound 4, N-(4-((E)-2-(2-(((1r,4r)-4-aminocyclohexyl)amino)-4-propylpyrimidin-5-yl)vinyl)phenyl)-2-chlorobenzenesulfonamide], on IRE1α [1], the EC50 lay in the range of 50 to 100 nM. On IRE1α [2], this compound yielded an IC50 of 1 to 5 nM.
As to `Cc1cc(NS(=O)(=O)c2ccccc2Cl)ccc1/C=C/c1cnc(NC2CCC(N)CC2)nc1` (centres unmarked) [Compound 5, N-(4-((E)-2-(2-(((1r,4r)-4-aminocyclohexyl)amino)pyrimidin-5-yl)vinyl)-3-methylphenyl)-2-chlorobenzenesulfonamide], the EC50 at IRE1α [1] is no more than 5 nM. The IC50 against IRE1α [2] is no more than 1 nM.
In turn, `Cc1nc(NS(=O)(=O)c2ccccc2Cl)ccc1CCc1cnc(NC2CCC(N(C)C)CC2)nc1` (centres unmarked) [Compound 21, 2-chloro-N-(5-(2-(2-(((1r,4r)-4-(dimethylamino)cyclohexyl)amino)pyrimidin-5-yl)ethyl)-6-methylpyridin-2-yl)benzenesulfonamide] returned a half-maximal inhibitory concentration (IC50) on IRE1α [2] of 1 to 5 nM.
Compound `COc1nc(NS(=O)(=O)c2ccccc2Cl)ccc1CCc1ccc(NC2CCC(N)CC2)nc1` (centres unmarked) [Compound 13, N-(5-(2-(6-(((1r,4r)-4-aminocyclohexyl)amino)pyridin-3-yl)ethyl)-6-methoxypyridin-2-yl)-2-chlorobenzenesulfonamide] had a concentration for half-maximal inhibition (IC50) against IRE1α [2] of 1 to 5 nM.
The same measure, in the same setting: the result for `Cc1cc(NS(=O)(=O)c2ccccc2Cl)ccc1CCc1cnc(NC2CCC(N)CC2)nc1` (centres unmarked) [Compound 6, N-(4-(2-(2-(((1r,4r)-4-aminocyclohexyl)amino)pyrimidin-5-yl)ethyl)-3-methylphenyl)-2-chlorobenzenesulfonamide] reads no more than 1 nM; that for `COc1cc(NS(=O)(=O)c2ccccc2Cl)cnc1CCc1cnc(NC2CCC(N)CC2)nc1` (centres unmarked) [Compound 18, N-(6-(2-(2-(((1r,4r)-4-aminocyclohexyl)amino)pyrimidin-5-yl)ethyl)-5-methoxypyridin-3-yl)-2-chlorobenzenesulfonamide], no more than 1 nM; that for `COc1nc(NS(=O)(=O)c2cnccc2Cl)ncc1C=Cc1cnc(NC2CCC(N(C)C)CC2)nc1` (centres unmarked) [Compound 43, 4-chloro-N-(5-(2-(2-(((1r,4r)-4-(dimethylamino)cyclohexyl)amino)pyrimidin-5-yl)vinyl)-4-methoxypyrimidin-2-yl)pyridine-3-sulfonamide], 1 to 5 nM.
